Experimental data as given in patent US5332734A, “Oxazinone derivative” (Japan Tobacco, Incorporated, priority 1991, dated 1994).

How the values were obtained:
Format in all cases: biochemical
[1] = target: T1, human leukocyte elastase (HLE) (Homo sapiens, UniProt P08246); assay: HLE inhibitory activity; conditions: HLE 5.63 nM, substrate 0.2625 mM, pH 8.6, 37° C.
T1 construct: applying a density gradient centrifugal operation so as to obtain neutrophils; from tissue; host or cells: neutrophils from human venous blood
T1 sequence (P08246 30-267): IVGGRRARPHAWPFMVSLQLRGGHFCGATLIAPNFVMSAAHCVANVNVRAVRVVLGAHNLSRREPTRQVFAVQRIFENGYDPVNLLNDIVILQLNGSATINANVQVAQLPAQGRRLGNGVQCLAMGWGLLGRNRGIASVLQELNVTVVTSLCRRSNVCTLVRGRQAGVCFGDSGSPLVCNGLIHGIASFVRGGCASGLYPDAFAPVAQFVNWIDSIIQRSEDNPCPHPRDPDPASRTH
Method: (§1) Inhibotory activities of the oxadinone derivative of the present invention against human leukocyte elastase (HLE), human sputum elastase (HSE), human cathepsin G (HCG), bovine pancreatic α-chymotrypsin (CYT) and bovine pancreatic trypsin (TRY) were measured as follows:
(1) Measurement of HLE Inhibitory Activity
A buffy coat was obtained by subjecting human vein blood to centrifugal separation, followed by adding distilled water to the buffy coat thus obtained for performing a low tension treatment so as to collapse erythrocytes. A mixture consisting of 10 parts of a 33.4% Conrey 400 solution and 24 parts of 9% of Ficoll solution was added to the residual blood cell component, followed by applying a density gradient centrifugal operation so as to obtain neutrophils. The neutrophil fraction was washed three times with Hanks' buffer so as to recover cells, which were frozen at -80° C. for preservation until the cells were used. The cells preserved under a frozen state were thawed with warm water of 37° C. and suspended in the lysis buffer (0.1M Tris-HCl pH 7.5, 1M MgCl2, 0.1% Brij 35), the amount of the buffer being 9 times as much as that of the cells. Then, the suspended cells were collapsed with polotron while cooling the suspension with ice. Then, the suspension was subjected to a centrifugal separation at 100,000×g for one hour so as to remove the precipitate. Also, a buffer (5 mM Tris-HCl pH 7.5, 1M NaCl, 1.1% Brij 35) was added to the supernatant in an amount twice as much as the supernatant so as to prepare a crude solution of an enzyme extract. The crude solution of an enzyme extract was adsorbed on an aprotinin affinity column. Further, the active fraction eluted with a 50 ml glycine-HCl solution (pH 3.3, 1M NaCl, 0.1% Brij 35) was passed through a MONO S ion-exchange chromatography. The active fraction eluted with a 2M NaCl linear gradient was dialyzed and, then, subjected to a freeze-drying so as to prepare an enzyme sample.
A test compound to be detected was dissolved in DMSO (for fluorometry) so as to prepare solutions of various concentrations. Then, the solution of 0.2M Tris-HCl (pH 9.6) was added to each of the solutions in an amount twice as much as the solution so as to prepare a test solution. On the other hand, a synthetic substrate (MeOSuc-Ala-Pro-Val-pNA; FUNAKOSHI) was dissolved in DMSO, followed by adding 0.2M tris-HCl solution (pH 8.6) to the solution in an amount twice as much as the solution so as to prepare a substrate solution.
A microplate (NUNK) provided with 96 wells was used for the reaction. The reaction was repeatedly carried out 6 times for each concentration of the test compound. Each of 140 μl of the enzyme solution (0.2M Tris-HCl, pH 8.6), 30 μl of the test material solution and 30 μl of the substrate solution was pre-incubated for 10 minutes at 37° C. for each well of the microplate. After incubation of a mixture of the enzyme solution and the test material solution for 10 minutes, the substrate solution was added so as to carry out the enzyme reaction. For determining the substrate decomposition, the absorbance (405 run) of the released pNA was measured by a microplate reader (MTP-100; CORONA), and the substrate decomposition was calculated on the basis of the average value of the absorbances repeatedly measured 6 times. The inhibitory concentration of the test compound relative to the decomposition amount of the substrate in the case where the test compound was not added was obtained as IC50 value.

[2] = target: T2, human sputum elastase (HSE) (Homo sapiens, UniProt P08246); assay: HSE inhibitory activity; conditions: HSE 10 nM, substrate 0.25 mM, pH 7.0
T2 construct: purchased Sigma Inc; host or cells: human sputum (by its name)
T2 sequence (P08246 30-247 limits assumed): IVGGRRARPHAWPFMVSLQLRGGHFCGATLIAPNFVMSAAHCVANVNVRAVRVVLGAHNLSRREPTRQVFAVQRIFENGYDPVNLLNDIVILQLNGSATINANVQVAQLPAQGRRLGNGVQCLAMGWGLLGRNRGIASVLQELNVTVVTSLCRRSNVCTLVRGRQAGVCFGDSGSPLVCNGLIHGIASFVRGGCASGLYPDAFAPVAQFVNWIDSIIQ
Method: as §1
(2) Measurement of HSE Inhibiting Activity
(§2) a) Enzyme Preparing Method Bought from Sigma Inc.
(§3) Employed was a measuring method similar to that described previously in conjunction with the measurement of the HLE inhibitory activity, except that used was a buffer solution of pH 7.0. The final concentrations of HSE and the synthetic substrate (MeOSuc-Ala-Ala-Pro-Phe-pNA; FUNAKOSHI) in the solution of the enzyme reaction were 10 nM and 0.25 mM, respectively.

human cathepsin G (HCG) = target: T3, human cathepsin G (HCG) (Homo sapiens, UniProt P08311); assay: HCG inhibitory activity; conditions: HCG 50 nM, substrate 0.5 mM, pH 7.5
T3 construct: purchased Cosmo Bio Inc
T3 sequence (P08311 21-255): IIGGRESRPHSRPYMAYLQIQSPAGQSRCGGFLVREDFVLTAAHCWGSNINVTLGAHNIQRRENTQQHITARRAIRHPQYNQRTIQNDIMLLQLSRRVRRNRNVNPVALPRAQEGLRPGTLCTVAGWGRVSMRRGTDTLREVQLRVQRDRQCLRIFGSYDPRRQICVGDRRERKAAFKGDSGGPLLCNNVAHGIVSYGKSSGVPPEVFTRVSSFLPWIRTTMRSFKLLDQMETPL
Method: as §1
(3) Measurement of HCG Inhibitory Activity
a) Enzyme Preparing Method Bought from Cosmo Bio Inc.
as §3, with “inhibiting” for “inhibitory”, “7.5.” for “7.0.”, “HCG” for “HSE”, “(Ac-Ala-Ala-Pro-Phe-pNA;” for “(MeOSuc-Ala-Ala-Pro-Phe-pNA;”, “50” for “10”, “0.5” for “0.25”

[3] = target: T4, bovine pancreatic α-chymotrypsin (CYT) (Bos taurus, UniProt P00766); assay: CYT inhibitory activity; conditions: CYT 3.4 nM, substrate 0.273 mM, pH 8.0
T4 construct: purchased Sigma Inc; host or cells: bovine pancreas (by its name)
Method: as §1
(4) Measurement of CYT Inhibitory Activity
as §2
as §3, with “inhibiting” for “inhibitory”, “8.0.” for “7.0.”, “CYT” for “HSE”, “(Ac-Ala-Ala-Pro-Phe-pNA;” for “(MeOSuc-Ala-Ala-Pro-Phe-pNA;”, “3.4” for “10”, “0.273” for “0.25”

IC50 [1] | IC50 [2] | IC50 (human cathepsin G (HCG)) | IC50 [3] | SMILES
240 nM | 310 nM | > 5500 nM | 4750 nM | Cc1cccc2nc([C@@H](NC(=O)OCC3c4ccccc4-c4ccccc43)C(C)C)oc(=O)c12 [Compound 1, 2-{1(S)-[(9-fluorenylmethoxycarbonyl)amino]-2-methylpropyl}-5-methyl-4H-3,1-benzoxazin-4-one]
730 nM | 300 nM | > 5340 nM | 4460 nM | Cc1cccc2nc([C@H](CC(C)C)NC(=O)OCC3c4ccccc4-c4ccccc43)oc(=O)c12 [Compound 2, 2-{1(S)-[(9-fluorenylmethoxycarbonyl)amino]-3-methylbutyl}-5-methyl-4H-3,1-benzoxazin-4-one]
